Measured values reported in patent US6203776A, “Method for identifying adrenergic receptor antagonists having good tolerability” (University Technology Corporation, priority 1998, dated 2001).

How the values were obtained:
[1] = tested on: β1, β2 and α1 adrenergic receptors; settings: Yoshikawa et al., Eur. Heart J. 1996; cited from earlier work
human β1 or β2 receptors = test: Inverse agonist activity: inhibition of basal adenylyl cyclase activity (cAMP generation) in Sf9 membranes; assay type: biochemical; settings: concentration 10×Ki for the β2 receptor
Method: Sf9 cells were transfected with a baculovirus expression system coding for human β1 or β2 receptors as described in Chidiac et al., Molec.
Adenylyl cyclase activity of Sf9 membranes was measured as described in Chidiac et al., Molec. […] The inhibition of basal cAMP generation in this system is a measure of inverse agonism.

CC(C)(Cc1c[nH]c2ccccc12)NCC(O)COc1ccccc1C#N (centres unmarked) [bucindolol]
adrenergic receptor subtype selectivity / rank order of potency [1]: nonselective for β1 and β2 adrenergic receptors
rank order of inverse agonist activity (FIG. 1B) (human β1 or β2 receptors): metoprolol>propranolol≥carvedilol>xamoterol>bucindolol
